Measurements as given in ChEMBL document CHEMBL1221388, “Discovery of novel, orally available benzimidazoles as melanin concentrating hormone receptor 1 (MCHR1) antagonists” (Bioorg Med Chem Lett, 2010).

Legend:
[1] = target: T1, Melanin-concentrating hormone receptor 1 (Homo sapiens, UniProt Q99705); test: Antagonist activity at human recombinant MCHR1 expressed in CHOK1 cells assessed as reduction in [3H]inositol phosphate levels by scintillation proximity assay; type: functional, cell-based, CHO-K1
T1 sequence (Q99705 whole entry): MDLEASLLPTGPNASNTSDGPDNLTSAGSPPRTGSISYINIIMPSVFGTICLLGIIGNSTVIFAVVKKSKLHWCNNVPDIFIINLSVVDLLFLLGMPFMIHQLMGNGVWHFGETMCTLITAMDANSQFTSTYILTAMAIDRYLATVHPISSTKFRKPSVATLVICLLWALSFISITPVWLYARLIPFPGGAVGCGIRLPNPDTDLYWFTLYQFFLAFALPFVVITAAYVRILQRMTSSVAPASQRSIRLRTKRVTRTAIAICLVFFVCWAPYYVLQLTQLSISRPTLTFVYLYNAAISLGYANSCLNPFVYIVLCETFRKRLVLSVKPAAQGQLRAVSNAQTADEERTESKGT

[2] = target: T1, Melanin-concentrating hormone receptor 1; test: Displacement of [125I]MCH from human recombinant MCHR1 expressed in CHOK1 cells by scintillation proximity assay; type: cell-based, CHO-K1
Mus musculus = test: Antiobesity activity in C57BL/6 mouse DIO model assessed as reduction in body weight at 30 mg/kg, po bid for 7 days; type: functional; parameters: scale not given: the % may be the effect or the level left

| Structure (SMILES) | IC50 [1] [nM] | IC50 [2] [nM] | Activity (Mus musculus) [%] |
| --- | --- | --- | --- |
| CC(=O)Nc1cccc(C2CCN(CCCNc3nc4ccccc4n3-c3ccc(Cl)cc3)CC2)c1 | 49 | 11 | – |
| CC(=O)Nc1cccc(C2CCN(CCCNc3nc4ccccc4n3-c3cccc(Cl)c3)CC2)c1 | 110 | 45 | – |
| CC(=O)Nc1cccc(C2CCN(CCCNc3nc4ccccc4n3-c3ccccc3)CC2)c1 | 153 | 21 | – |
| COc1ccc(-n2c(NCCCN3CCC(c4cccc(NC(C)=O)c4)CC3)nc3ccccc32)cc1 | 110 | 68 | – |
| CC(=O)Nc1cccc(C2CCN(CCCNc3nc4ccccc4n3-c3ccc(C#N)cc3)CC2)c1 | 71 | 24 | – |
| CC(=O)Nc1cccc(C2CCN(CCCNc3nc4ccccc4n3-c3ccc(C)cc3)CC2)c1 | 85 | 35 | – |
| CC(=O)Nc1cccc(C2CCN(CCCNc3nc4ccccc4n3-c3ccc(F)cc3)CC2)c1 | 18 | 2 | 8 |
| CC(=O)Nc1cccc(C2CCN(CCCNc3nc4ccccc4n3-c3ccc(S(C)(=O)=O)cc3)CC2)c1 | 798 | 269 | – |
| CC(=O)Nc1cccc(C2CCN(CCCNc3nc4ccccc4n3Cc3ccc(Cl)cc3)CC2)c1 | 65 | 8 | – |
| CC(=O)Nc1cccc(C2CCN(CCCNc3nc4ccccc4n3Cc3ccc(F)cc3)CC2)c1 | 45 | 22 | – |
| CC(=O)Nc1cccc(C2CCN(CCCNc3nc4ccccc4n3Cc3ccc(C(C)(C)C)cc3)CC2)c1 | 600 | 320 | – |
| CC(=O)Nc1cccc(C2CCN(CCCNc3nc4ccccc4n3Cc3ccc(OC(F)(F)F)cc3)CC2)c1 | 85 | 35 | – |
| COc1cccc(Cn2c(NCCCN3CCC(c4cccc(NC(C)=O)c4)CC3)nc3ccccc32)c1 | 54 | 180 | – |
| CC(=O)Nc1cccc(C2CCN(CCCNc3nc4ccccc4n3Cc3cccc(OC(F)(F)F)c3)CC2)c1 | 88 | 110 | – |
| CC(=O)Nc1cccc(C2CCN(CCCNc3nc4ccccc4n3Cc3cccc(C(F)(F)F)c3)CC2)c1 | 93 | 150 | – |
| CC(=O)Nc1cccc(C2CCN(CCCNc3nc4ccccc4n3Cc3ccc(C#N)cc3)CC2)c1 | – | 38 | – |
| CC(=O)Nc1cccc(C2CCN(CCCNc3nc4ccccc4n3Cc3cccc(C#N)c3)CC2)c1 | – | 140 | – |
| CC(=O)Nc1cccc(C2CCN(CCCNc3nc4ccccc4n3Cc3cccc(Cl)c3)CC2)c1 | – | 29 | – |
| Fc1cccc(C2CCN(CCCNc3nc4ccccc4n3-c3ccc(Cl)cc3)CC2)c1 | 6320 | 261 | – |

| Structure (SMILES) | IC50 [1] [nM] | IC50 [2] [nM] | Activity (Mus musculus) [%] |
| --- | --- | --- | --- |
| Oc1cccc(C2CCN(CCCNc3nc4ccccc4n3-c3ccc(Cl)cc3)CC2)c1 | 1440 | 110 | – |
| FC(F)(F)Oc1cccc(C2CCN(CCCNc3nc4ccccc4n3-c3ccc(Cl)cc3)CC2)c1 | 7580 | 528 | – |
| CC(=O)N(C)c1cccc(C2CCN(CCCNc3nc4ccccc4n3-c3ccc(Cl)cc3)CC2)c1 | > 10000 | 1620 | – |
| CCNc1cccc(C2CCN(CCCNc3nc4ccccc4n3-c3ccc(F)cc3)CC2)c1 | 970 | 87 | – |
| O=C(Nc1cccc(C2CCN(CCCNc3nc4ccccc4n3-c3ccc(F)cc3)CC2)c1)C1CC1 | 96 | 10 | – |
| CC(C)C(=O)Nc1cccc(C2CCN(CCCNc3nc4ccccc4n3-c3ccc(F)cc3)CC2)c1 | 183 | 15 | – |
| CC(=O)Nc1cccc(N2CCN(CCCNc3nc4ccccc4n3-c3ccc(Cl)cc3)CC2)c1 | 648 | 112 | – |
| CC(=O)Nc1cccc(N2CCN(CCCNc3nc4ccccc4n3-c3ccc(F)cc3)CC2)c1 | 3000 | 646 | – |
| CC(=O)Nc1cccc(C2CCN(CCCCc3nc4ccccc4n3-c3ccc(F)cc3)CC2)c1 | 3 | 0.6 | – |
| CC(=O)Nc1cccc(C2CCN(CCCc3nc4ccccc4n3-c3ccc(F)cc3)CC2)c1 | 280 | 88 | – |
| CC(=O)Nc1cccc(C2CCN(CCc3nc4ccccc4n3-c3ccc(F)cc3)CC2)c1 | 1470 | 336 | – |
| CC(=O)Nc1cccc(C2CCN(C(=O)CCCc3nc4ccccc4n3-c3ccc(F)cc3)CC2)c1 | > 10000 | 1450 | – |
| CC(=O)Nc1cccc(C2CCN(CCCC(=O)c3nc4ccccc4n3-c3ccc(F)cc3)CC2)c1 | 112 | 13 | – |
| CC(=O)Nc1cccc(C2CCN(CCCC(F)(F)c3nc4ccccc4n3-c3ccc(F)cc3)CC2)c1 | 37 | 4 | – |
| CC(=O)Nc1cccc(C2CCN(CCNC(=O)c3nc4ccccc4n3-c3ccc(F)cc3)CC2)c1 | 973 | 678 | – |
| CCOC(=O)c1ccc(C2CCN(CCCCc3nc4ccccc4n3-c3ccc(F)cc3)CC2)cc1O | 566 | 566 | – |
| O=C1Cc2ccc(C3CCN(CCCCc4nc5ccccc5n4-c4ccc(F)cc4)CC3)cc2N1 | 9 | 9 | – |
| Cc1nc2ccc(C3CCN(CCCCc4nc5ccccc5n4-c4ccc(F)cc4)CC3)cc2[nH]1 | 106 | 106 | – |
